# Assays:
# [1] = cited from earlier work
# [2] = Stimulating ventilation or reversing respiratory depression (respiratory stimulant activity); format: in vivo; conditions: compared with racemic doxapram
# [3] = Acute side effects in animals; format: in vivo; conditions: compared with racemic doxapram or a salt thereof
Compound,tidal volume and respiratory rate ([1]; administered intravenously),"effect on stimulating respiration (breathing) ([1]; animals, Ward & Franko, 1962)",activity in stimulating ventilation or reversing respiratory depression (desired beneficial pharmacological activity of racemic doxapram) [2],adverse side effects compared to administration of racemic doxapram [3]
CCN1CC(CCN2CCOCC2)C(c2ccccc2)(c2ccccc2)C1=O (racemic) [doxapram],increase,"strong, dose-dependent effect",–,–
"CCN1CC(CCN2CCOCC2)C(c2ccccc2)(c2ccccc2)C1=O (single isomer, unassigned; (-)) [(−)-doxapram]",–,–,essentially devoid of activity,–
"CCN1C[C@H](CCN2CCOCC2)C(c2ccccc2)(c2ccccc2)C1=O [(+)-doxapram, (+)-4-(2-(1-ethyl-5-oxo-4,4-diphenylpyrrolidin-3-yl)ethyl)morpholine]",–,–,most or all the desired beneficial pharmacological activity associated with the racemic doxapram,significantly reduced adverse side effects

# — patent US20130109854A1, “Novel Methods for Preparation of (+)-1-ethyl-4-[2-(4-morpholinyl)ethyl)-3,3-diphenyl-2-pyrrolidinone and Salts Thereof” (priority 2011, published 2013)
